Test results taken from patent US11203601B2, “Tricyclic compounds as glycogen synthase kinase 3 (GSK3) inhibitors and uses thereof” (The Broad Institute, Inc., priority 2017, dated 2021).

What was measured:
Assay in all cases: Carna kinome panel
Type in all cases: biochemical
MAP2K7_Cascade = MAP2K7_Cascade (Homo sapiens (Human), UniProt O14733); conditions: read-out: % Inhibition at 10 μM of the test compound
YES(T348I) = YES(T348I) (Homo sapiens (Human), UniProt P07947, T348I); conditions: read-out: % Inhibition at 10 μM of the test compound
p70S6K = p70S6K (Homo sapiens (Human), UniProt P23443); conditions: read-out: % Inhibition at 10 μM of the test compound
PKACβ = PKACβ (Homo sapiens (Human), UniProt P22694); conditions: read-out: % Inhibition at 10 μM of the test compound
MAP3K3_Cascade = MAP3K3_Cascade (Homo sapiens (Human), UniProt Q99759); conditions: read-out: % Inhibition at 10 μM of the test compound
TSSK1 = TSSK1 (Homo sapiens (Human), UniProt Q9BXA7); conditions: read-out: % Inhibition at 10 μM of the test compound
Sequence of TSSK1 (Q9BXA7 whole entry): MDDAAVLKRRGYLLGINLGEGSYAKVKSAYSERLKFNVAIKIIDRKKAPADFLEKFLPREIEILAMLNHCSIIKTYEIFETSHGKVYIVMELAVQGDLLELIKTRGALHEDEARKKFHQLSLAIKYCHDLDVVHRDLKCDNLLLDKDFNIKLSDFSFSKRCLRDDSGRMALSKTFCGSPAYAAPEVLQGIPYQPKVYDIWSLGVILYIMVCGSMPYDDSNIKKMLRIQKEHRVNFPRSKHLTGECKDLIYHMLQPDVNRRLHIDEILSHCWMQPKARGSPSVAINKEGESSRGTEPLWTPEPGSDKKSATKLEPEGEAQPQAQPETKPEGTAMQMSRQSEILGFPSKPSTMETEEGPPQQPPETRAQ

p38γ = p38γ (Homo sapiens (Human), UniProt P53778); conditions: read-out: % Inhibition at 10 μM of the test compound
PKD1 = PKD1 (Homo sapiens (Human), UniProt Q15139); conditions: read-out: % Inhibition at 10 μM of the test compound
Sequence of PKD1 (Q15139 whole entry, looked up): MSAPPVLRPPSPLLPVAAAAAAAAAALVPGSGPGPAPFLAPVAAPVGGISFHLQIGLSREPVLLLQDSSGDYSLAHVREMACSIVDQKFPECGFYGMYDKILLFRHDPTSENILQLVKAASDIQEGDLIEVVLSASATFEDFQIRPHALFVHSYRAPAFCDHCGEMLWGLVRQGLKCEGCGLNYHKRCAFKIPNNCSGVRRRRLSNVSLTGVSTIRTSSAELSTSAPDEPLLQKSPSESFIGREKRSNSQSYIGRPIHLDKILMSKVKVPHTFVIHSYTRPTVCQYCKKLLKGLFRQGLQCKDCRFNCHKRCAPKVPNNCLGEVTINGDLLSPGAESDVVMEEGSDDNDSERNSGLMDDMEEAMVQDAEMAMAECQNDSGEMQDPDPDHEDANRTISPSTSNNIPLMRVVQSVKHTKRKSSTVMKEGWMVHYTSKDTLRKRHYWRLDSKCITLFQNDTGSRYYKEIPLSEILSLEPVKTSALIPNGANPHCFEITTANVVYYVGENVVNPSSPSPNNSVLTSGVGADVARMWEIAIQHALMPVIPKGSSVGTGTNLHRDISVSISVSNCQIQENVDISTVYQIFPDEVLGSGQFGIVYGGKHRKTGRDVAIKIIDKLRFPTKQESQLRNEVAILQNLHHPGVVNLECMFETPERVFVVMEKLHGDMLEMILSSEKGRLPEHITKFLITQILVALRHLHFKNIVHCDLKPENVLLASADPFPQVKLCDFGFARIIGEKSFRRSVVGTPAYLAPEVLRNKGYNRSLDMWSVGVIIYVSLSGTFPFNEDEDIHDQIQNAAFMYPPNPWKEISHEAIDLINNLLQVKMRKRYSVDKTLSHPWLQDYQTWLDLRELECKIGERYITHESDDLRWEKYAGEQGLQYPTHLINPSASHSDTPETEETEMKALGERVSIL

PYK2 = PYK2 (Homo sapiens (Human), UniProt Q14289); conditions: read-out: % Inhibition at 10 μM of the test compound
EPHA7 = EPHA7 (Homo sapiens (Human), UniProt Q15375); conditions: read-out: % Inhibition at 10 μM of the test compound
IRAK1 = IRAK1 (Homo sapiens (Human), UniProt P51617); conditions: read-out: % Inhibition at 10 μM of the test compound
Sequence of IRAK1 (P51617 whole entry): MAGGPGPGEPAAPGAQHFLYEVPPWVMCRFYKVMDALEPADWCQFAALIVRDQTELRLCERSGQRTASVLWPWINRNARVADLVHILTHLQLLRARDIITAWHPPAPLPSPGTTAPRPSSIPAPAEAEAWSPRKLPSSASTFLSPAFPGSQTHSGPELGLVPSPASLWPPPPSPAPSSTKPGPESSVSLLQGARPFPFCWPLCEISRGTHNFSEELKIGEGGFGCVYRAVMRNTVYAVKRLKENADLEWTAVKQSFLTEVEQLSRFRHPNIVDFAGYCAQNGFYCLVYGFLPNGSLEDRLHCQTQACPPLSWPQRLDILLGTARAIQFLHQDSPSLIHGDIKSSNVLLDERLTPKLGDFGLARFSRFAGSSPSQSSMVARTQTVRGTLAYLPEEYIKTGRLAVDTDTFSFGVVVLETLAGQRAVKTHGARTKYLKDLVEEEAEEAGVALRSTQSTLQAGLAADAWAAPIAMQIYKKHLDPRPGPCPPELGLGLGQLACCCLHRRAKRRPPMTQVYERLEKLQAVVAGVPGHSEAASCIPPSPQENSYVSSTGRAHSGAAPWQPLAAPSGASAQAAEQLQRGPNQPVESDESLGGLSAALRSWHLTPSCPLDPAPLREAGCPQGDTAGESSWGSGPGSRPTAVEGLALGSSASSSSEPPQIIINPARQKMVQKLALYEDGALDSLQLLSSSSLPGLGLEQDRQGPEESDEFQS

PAK5 = PAK5 (Homo sapiens (Human), UniProt Q9P286); conditions: read-out: % Inhibition at 10 μM of the test compound
Sequence of PAK5 (Q9P286 whole entry): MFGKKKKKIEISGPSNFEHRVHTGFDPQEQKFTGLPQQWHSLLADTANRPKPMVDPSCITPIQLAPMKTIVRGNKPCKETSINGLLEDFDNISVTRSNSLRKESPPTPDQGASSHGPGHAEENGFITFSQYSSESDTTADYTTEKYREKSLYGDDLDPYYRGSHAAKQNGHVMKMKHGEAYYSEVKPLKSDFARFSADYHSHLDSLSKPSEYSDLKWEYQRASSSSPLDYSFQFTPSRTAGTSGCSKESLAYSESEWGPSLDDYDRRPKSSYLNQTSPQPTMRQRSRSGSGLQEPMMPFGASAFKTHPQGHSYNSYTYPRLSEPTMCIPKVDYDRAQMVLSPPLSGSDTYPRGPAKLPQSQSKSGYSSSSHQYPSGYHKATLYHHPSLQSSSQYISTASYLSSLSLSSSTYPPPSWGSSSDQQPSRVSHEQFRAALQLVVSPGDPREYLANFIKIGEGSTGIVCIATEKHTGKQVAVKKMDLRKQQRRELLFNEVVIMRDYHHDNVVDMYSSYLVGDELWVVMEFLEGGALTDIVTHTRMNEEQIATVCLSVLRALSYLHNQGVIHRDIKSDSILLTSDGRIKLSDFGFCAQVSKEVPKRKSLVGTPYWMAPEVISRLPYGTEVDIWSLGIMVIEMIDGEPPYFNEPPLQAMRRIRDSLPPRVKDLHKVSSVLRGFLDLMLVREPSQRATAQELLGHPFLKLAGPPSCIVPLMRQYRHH

SGK2 = SGK2 (Homo sapiens (Human), UniProt Q9HBY8); conditions: read-out: % Inhibition at 10 μM of the test compound
Sequence of SGK2 (Q9HBY8 whole entry): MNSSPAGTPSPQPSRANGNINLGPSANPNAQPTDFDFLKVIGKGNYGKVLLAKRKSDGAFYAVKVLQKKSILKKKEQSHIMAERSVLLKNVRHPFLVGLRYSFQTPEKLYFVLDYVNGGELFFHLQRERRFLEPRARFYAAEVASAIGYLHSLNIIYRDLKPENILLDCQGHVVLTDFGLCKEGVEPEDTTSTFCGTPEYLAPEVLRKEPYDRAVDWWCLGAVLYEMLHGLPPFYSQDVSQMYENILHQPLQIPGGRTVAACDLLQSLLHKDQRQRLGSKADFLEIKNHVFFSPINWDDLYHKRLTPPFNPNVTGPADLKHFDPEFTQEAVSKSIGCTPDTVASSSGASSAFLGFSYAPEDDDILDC

PKCι = PKCι (Homo sapiens (Human), UniProt P41743); conditions: read-out: % Inhibition at 10 μM of the test compound
Sequence of PKCι (P41743 whole entry): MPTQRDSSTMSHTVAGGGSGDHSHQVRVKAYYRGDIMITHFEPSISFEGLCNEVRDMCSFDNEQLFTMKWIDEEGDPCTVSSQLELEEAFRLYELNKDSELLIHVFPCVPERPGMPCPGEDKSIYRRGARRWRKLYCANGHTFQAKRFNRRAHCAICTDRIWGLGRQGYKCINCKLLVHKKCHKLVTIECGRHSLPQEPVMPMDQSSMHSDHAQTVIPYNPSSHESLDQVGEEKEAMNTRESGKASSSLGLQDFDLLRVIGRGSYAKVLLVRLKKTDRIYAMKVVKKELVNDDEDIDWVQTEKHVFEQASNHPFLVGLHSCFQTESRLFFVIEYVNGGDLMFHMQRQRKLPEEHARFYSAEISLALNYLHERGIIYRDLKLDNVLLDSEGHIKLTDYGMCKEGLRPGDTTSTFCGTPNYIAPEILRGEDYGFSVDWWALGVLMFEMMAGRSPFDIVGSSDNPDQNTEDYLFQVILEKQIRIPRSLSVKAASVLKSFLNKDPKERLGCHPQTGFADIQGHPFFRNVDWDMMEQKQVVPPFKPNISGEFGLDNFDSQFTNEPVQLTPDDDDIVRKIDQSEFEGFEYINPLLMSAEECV

KIT(T670I) = KIT(T670I) (Homo sapiens (Human), UniProt P10721, T670I); conditions: read-out: % Inhibition at 10 μM of the test compound
MET = MET (Homo sapiens (Human), UniProt P08581); conditions: read-out: % Inhibition at 10 μM of the test compound
FGFR2 = FGFR2 (Homo sapiens (Human), UniProt P21802); conditions: read-out: % Inhibition at 10 μM of the test compound
FLT4 = FLT4 (Homo sapiens (Human), UniProt P35916); conditions: read-out: % Inhibition at 10 μM of the test compound
PAK4 = PAK4 (Homo sapiens (Human), UniProt O96013); conditions: read-out: % Inhibition at 10 μM of the test compound
RAF1_Cascade = test system: RAF1_Cascade
Method: Briefly, a selection of compounds was screened against a panel of kinases at a single concentration of 10 μM. […] This was completed using one of two assays, depending on the kinase being examined: 1) IMAP Assay. A solution of 4× inhibitor, 4× substrate/ATP/metal solution and 2× kinase solution was prepared with assay buffer (20 mM HEPES, 0.01% Tween-20, 2 mM DTT, pH 7.4) and mixed, then incubated in 384-well black plates for 1 hour at room temperature. The IMAP binding reagent (IMAP Screening Express kit; Molecular Devices) was added to each well and incubated for 30 minutes. […] 2) Off-Chip Mobility Shift Assay (MSA). A solution of 4× inhibitor, 4× substrate/ATP/metal solution and 2× kinase solution was prepared with assay buffer (20 mM HEPES, 0.01% Triton X-100, 2 mM DTT, pH 7.5) and mixed, then incubated in 384-well plates for 1 or 5 hours depending on the kinase, at room temperature. Termination buffer (QuickScout Screening assist MSA; Carna Biosciences) was added to each well. The entire reaction mixture was then applied to a LabChip3000 system (Caliper Life Science), and the product and substrate peptide peaks were separated and quantified. […] The entire reaction mixture was then applied to a LabChip3000 system (Caliper Life Science), and the product and substrate peptide peaks were separated and quantified.

WNK3 = WNK3 (Homo sapiens (Human), UniProt Q9BYP7); conditions: read-out: % Inhibition at 10 μM of the test compound
SIK = SIK (Homo sapiens (Human), UniProt P57059); conditions: read-out: % Inhibition at 10 μM of the test compound
MELK = MELK (Homo sapiens (Human), UniProt Q14680); conditions: read-out: % Inhibition at 10 μM of the test compound
NEK2 = NEK2 (Homo sapiens (Human), UniProt P51955); conditions: read-out: % Inhibition at 10 μM of the test compound
IRR = IRR (Homo sapiens (Human), UniProt P14616); conditions: read-out: % Inhibition at 10 μM of the test compound
INSR = INSR (Homo sapiens (Human), UniProt P06213); conditions: read-out: % Inhibition at 10 μM of the test compound
Sequence of INSR (P06213 28-1382): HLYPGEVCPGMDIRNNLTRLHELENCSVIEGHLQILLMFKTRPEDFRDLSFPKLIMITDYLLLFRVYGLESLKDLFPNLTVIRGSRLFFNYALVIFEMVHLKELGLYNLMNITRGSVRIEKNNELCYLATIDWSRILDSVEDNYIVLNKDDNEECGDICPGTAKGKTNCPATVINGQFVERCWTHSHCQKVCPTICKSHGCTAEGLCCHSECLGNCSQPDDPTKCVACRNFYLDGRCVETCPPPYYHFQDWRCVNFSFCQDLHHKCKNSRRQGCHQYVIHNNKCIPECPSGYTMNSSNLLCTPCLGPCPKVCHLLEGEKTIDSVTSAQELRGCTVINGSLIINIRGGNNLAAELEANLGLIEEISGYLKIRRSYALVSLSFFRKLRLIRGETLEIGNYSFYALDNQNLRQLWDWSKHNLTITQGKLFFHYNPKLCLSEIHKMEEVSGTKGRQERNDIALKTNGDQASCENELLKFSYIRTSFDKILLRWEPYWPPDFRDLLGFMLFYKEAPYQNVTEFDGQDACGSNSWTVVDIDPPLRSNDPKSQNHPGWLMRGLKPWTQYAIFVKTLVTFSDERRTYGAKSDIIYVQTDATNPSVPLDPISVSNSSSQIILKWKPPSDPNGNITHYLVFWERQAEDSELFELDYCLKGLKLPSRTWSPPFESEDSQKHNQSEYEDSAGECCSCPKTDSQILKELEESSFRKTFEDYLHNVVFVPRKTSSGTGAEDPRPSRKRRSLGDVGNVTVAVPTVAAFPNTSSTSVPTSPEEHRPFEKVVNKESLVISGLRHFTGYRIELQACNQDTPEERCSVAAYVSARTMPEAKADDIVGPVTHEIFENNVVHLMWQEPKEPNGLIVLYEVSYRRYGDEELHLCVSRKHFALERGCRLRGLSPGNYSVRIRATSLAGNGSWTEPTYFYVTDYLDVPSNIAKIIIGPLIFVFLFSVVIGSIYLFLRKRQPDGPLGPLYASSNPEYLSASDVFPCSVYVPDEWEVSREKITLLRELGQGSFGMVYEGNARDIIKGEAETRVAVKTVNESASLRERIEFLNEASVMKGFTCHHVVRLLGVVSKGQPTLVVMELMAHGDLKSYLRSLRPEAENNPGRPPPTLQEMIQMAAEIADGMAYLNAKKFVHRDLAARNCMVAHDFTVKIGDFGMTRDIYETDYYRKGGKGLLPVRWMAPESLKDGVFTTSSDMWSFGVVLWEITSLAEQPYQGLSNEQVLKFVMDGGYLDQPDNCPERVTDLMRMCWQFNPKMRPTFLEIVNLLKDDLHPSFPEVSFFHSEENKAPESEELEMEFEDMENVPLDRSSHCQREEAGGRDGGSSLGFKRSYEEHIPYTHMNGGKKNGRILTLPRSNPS

EGFR(d746-750) = EGFR(d746-750) (Homo sapiens (Human), UniProt P00533, DEL746-750); conditions: read-out: % Inhibition at 10 μM of the test compound
EPHA8 = EPHA8 (Homo sapiens (Human), UniProt P29322); conditions: read-out: % Inhibition at 10 μM of the test compound
CK1γ1 = CK1γ1 (Homo sapiens (Human), UniProt Q9HCP0); conditions: read-out: % Inhibition at 10 μM of the test compound
EGFR = EGFR (Homo sapiens (Human), UniProt P00533); conditions: read-out: % Inhibition at 10 μM of the test compound
p38δ = p38δ (Homo sapiens (Human), UniProt O15264); conditions: read-out: % Inhibition at 10 μM of the test compound
MAPKAPK3 = MAPKAPK3 (Homo sapiens (Human), UniProt Q16644); conditions: read-out: % Inhibition at 10 μM of the test compound
PLK3 = PLK3 (Homo sapiens (Human), UniProt Q9H4B4); conditions: read-out: % Inhibition at 10 μM of the test compound
EGFR(L858R) = EGFR(L858R) (Homo sapiens (Human), UniProt P00533, L858R); conditions: read-out: % Inhibition at 10 μM of the test compound
EPHB2 = EPHB2 (Homo sapiens (Human), UniProt P29323); conditions: read-out: % Inhibition at 10 μM of the test compound
MARK2 = MARK2 (Homo sapiens (Human), UniProt Q7KZI7); conditions: read-out: % Inhibition at 10 μM of the test compound
FER = FER (Homo sapiens (Human), UniProt P16591); conditions: read-out: % Inhibition at 10 μM of the test compound
SRPK2 = SRPK2 (Homo sapiens (Human), UniProt P78362); conditions: read-out: % Inhibition at 10 μM of the test compound
CaMK1δ = CaMK1δ (Homo sapiens (Human), UniProt Q8IU85); conditions: read-out: % Inhibition at 10 μM of the test compound
MGC42105 = MGC42105 (Homo sapiens (Human), UniProt Q8IY84); conditions: read-out: % Inhibition at 10 μM of the test compound
AMPKα1/β1/γ1 = AMPKα1/β1/γ1 (Homo sapiens (Human), UniProt Q13131); conditions: read-out: % Inhibition at 10 μM of the test compound

## CCC1(c2ccccc2)C2=C(CC(C)(C)CC2=O)Nc2ncsc21 (centres unmarked) [Compound 1, 9-Ethyl-6,6-dimethyl-9-phenyl-5,6,7,9-tetrahydrothiazolo[4,5-b]quinolin-8(4H)-one]
MAP2K7_Cascade
  inhibition at 10 µM: 2.8%
YES(T348I)
  inhibition at 10 µM: 13.5%
p70S6K
  inhibition at 10 µM: 2.9%
PKACβ
  inhibition at 10 µM: -0.8%
MAP3K3_Cascade
  inhibition at 10 µM: 11.1%
TSSK1
  inhibition at 10 µM: -5%
p38γ
  inhibition at 10 µM: 8.9%
PKD1
  inhibition at 10 µM: 1%
PYK2
  inhibition at 10 µM: -3.1%
EPHA7
  inhibition at 10 µM: 33.9%
IRAK1
  inhibition at 10 µM: -8.9%
PAK5
  inhibition at 10 µM: 2.9%
SGK2
  inhibition at 10 µM: -8.7%
PKCι
  inhibition at 10 µM: -2.7%
KIT(T670I)
  inhibition at 10 µM: -4.2%
MET
  inhibition at 10 µM: 8.9%
FGFR2
  inhibition at 10 µM: 1.4%
FLT4
  inhibition at 10 µM: -0.2%
PAK4
  inhibition at 10 µM: 17%
RAF1_Cascade
  % Inhibition at 10 μM of the test compound: −6.7%
WNK3
  inhibition at 10 µM: 0.3%
SIK
  inhibition at 10 µM: 5.6%
MELK
  inhibition at 10 µM: 1.6%
NEK2
  inhibition at 10 µM: 0.9%
IRR
  inhibition at 10 µM: 6.6%
INSR
  inhibition at 10 µM: 4.1%
EGFR(d746-750)
  inhibition at 10 µM: -6.1%
EPHA8
  inhibition at 10 µM: 3%
CK1γ1
  inhibition at 10 µM: 1.2%
EGFR
  inhibition at 10 µM: 21.2%
p38δ
  inhibition at 10 µM: 18%
MAPKAPK3
  inhibition at 10 µM: -15.5%
PLK3
  inhibition at 10 µM: 3.4%
EGFR(L858R)
  inhibition at 10 µM: 22.2%
EPHB2
  inhibition at 10 µM: 14.5%
MARK2
  inhibition at 10 µM: 0.4%
FER
  inhibition at 10 µM: -7.5%
SRPK2
  inhibition at 10 µM: 3.1%
CaMK1δ
  inhibition at 10 µM: 1.3%
MGC42105
  inhibition at 10 µM: 4.3%
AMPKα1/β1/γ1
  inhibition at 10 µM: 7.6%
